For experiment [1], the system named is CXCR4-tropic virus strains. Particulars: cited from earlier work.
The next experiment concerns primary HIV-1 isolates. As to conditions: isolates P-31, P-41-0, P41-28 and P-51; IsnoR5 clone 2 cells; 1 μg/ml AMD 3100.
The subject of experiment [2] is dualtropic viruses that use CCR5 and CXCR4. As to conditions: human PBMC; cited from earlier work.

Description for primary HIV-1 isolates: Virus-containing supernatants, normalized to 5 ng/ml HIV-1 Gag p24, were titrated in the IsnoR5 clones in the absence and presence of 1 μg/ml AMD 3100. After 14 days, cell free supernatants tested for viral Gag protein by p24 antigen capture assay. The number of positive wells was used to determine the TCID50 of the original sample.
Virus isolation was performed as previously described (Holtkamp et al., 2000) except that viral replication was detected using an antigen capture enzyme-linked immunosorbent assay (ELISA) for the HIV-1 Gag p24 core protein. Inactivated supernatants (0.2% Tween 20) were titrated on ELISA plates coated with the Gag-specific monoclonal antibody Ag3.0 (hybridoma kindly provided by Jon Allan, Southwest Foundation, San Antonio, Tex., USA). […] Captured protein was detected using pooled sera from HIV-1 positive individuals followed by a goat antihuman immunoglobulin G-peroxidase conjugate (Sigma-Aldrich, Taufkirchen, Germany). Virus levels were calculated by comparison with a standard HIV-1 supernatant of known p24 Gag concentration.
Virus-containing supernatants were serially diluted in media and aliquoted (50 μl per well, six replicates per dilution) into U-well microtiter plates containing 2×10^5 of IsnoR5 clones 1 or 2 or 4.5×10^5 PBMC from healthy blood donors in 150 μl medium. […]

In the case of `c1cc(CN2CCCNCCNCCCNCC2)ccc1CN1CCCNCCNCCCNCC1` [AMD 3100], in experiment [1], the “Infection of cells by CXCR4-tropic virus strains” value was “preventing infection”. Also, the “Replication of isolates in the presence of AMD 3100 (FIG. 5)” value in the experiment on primary HIV-1 isolates is listed as “all were inhibited from replication”. Besides, in experiment [2], the “Block of dualtropic viruses” value was “efficiently block”.

Source of the values: patent US20110033837A1 (priority 2007, published 2011).
